The values below come from patent US7462717B2, “C6-and C9-substituted chromeno[4,3-c]isoxazoline derivatives and their use as anti-depressants” (Janssen Pharmaceutica N.V., priority 2002, dated 2008).

One assay deals with T1, hα2A receptor (Homo sapiens, UniProt P08913).
T1 construct: expressed in transfected cells
T1 sequence (P08913 1-465): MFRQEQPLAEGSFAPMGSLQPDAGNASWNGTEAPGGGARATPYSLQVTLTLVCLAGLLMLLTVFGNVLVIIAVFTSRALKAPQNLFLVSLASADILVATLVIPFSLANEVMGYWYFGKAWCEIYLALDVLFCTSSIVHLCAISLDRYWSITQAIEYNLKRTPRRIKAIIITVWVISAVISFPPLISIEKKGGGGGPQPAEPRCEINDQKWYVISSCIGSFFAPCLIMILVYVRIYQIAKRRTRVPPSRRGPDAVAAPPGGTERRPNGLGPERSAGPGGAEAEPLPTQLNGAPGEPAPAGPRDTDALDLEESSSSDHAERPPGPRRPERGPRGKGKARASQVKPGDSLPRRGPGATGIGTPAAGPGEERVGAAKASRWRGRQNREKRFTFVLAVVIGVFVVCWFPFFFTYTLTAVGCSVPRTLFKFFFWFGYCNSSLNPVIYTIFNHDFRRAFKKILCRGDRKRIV
In words: Radioligand binding experiment for α2A-adrenergic receptor ([3H]-raulwolscine). The following applies: membranes of CHO cells transfected with human α2A receptor; [3H]raulwolscine 1 nM. As for the experimental part: (§1) The interaction of the compounds of Formula (I) with hα2-receptors and h5-HT-transporters was assessed in in vitro radioligand binding experiments. In general, a low concentration of a radioligand with a high binding affinity for a particular receptor or transporter is incubated with a sample of a tissue preparation enriched in a particular receptor or transporter or with a preparation of cells expressing cloned human receptors in a buffered medium. During the incubation, the radioligand binds to the receptor or transporter. When equilibrium of binding is reached, the receptor bound radioactivity is separated from the non-bound radioactivity, and the receptor- or transporter-bound activity is counted. The interaction of the test compounds with the receptor is assessed in competition binding experiments. Various concentrations of the test compound are added to the incubation mixture containing the receptor- or transporter preparation and the radioligand. The test compound in proportion to its binding affinity and its concentration inhibits binding of the radioligand. The radioligand used for hα2A, hα2B and hα2C receptor binding was [^3H]-raulwolscine and for the h5-HT transporter was [^3H]paroxetine.
(§2) CHO cells, stabile transfected with human adrenergic-α2A-, -α2B or α2C receptor cDNA, were cultured in Dulbecco's Modified Eagle's Medium (DMEM)/Nutrient mixture Ham's F12 (ratio 1:1) (Gibco, Gent-Belgium) supplemented with 10% heat inactivated fetal calf serum (Life Technologies, Merelbeke-Belgium) and antibiotics (100 IU/ml penicillin G, 100 μg/ml streptomycin sulphate, 110 μg/ml pyruvic acid and 100 μg/ml L-glutamine). One day before collection, cells were induced with 5 mM sodiumbutyrate. Upon 80-90% of confluence, cells were scraped in phosphate buffered saline without Ca^2+ and Mg^2+ and collected by centrifugation at 1500×g for 10 min. The cells were homogenised in Tris-HCl 50 mM using an Ultraturrax homogenizer and centrifuged for 10 min at 23,500×g. The pellet was washed once by resuspension and rehomogenization and the final pellet was resuspended in Tris-HCl, divided in 1 ml aliquots and stored at −70° C.
(§3) Membranes were thawed and re-homogenized in incubation buffer (glycylglycine 25 mM, pH 8.0). In a total volume of 500 μl, 2-10 μg protein was incubated with [^3H]raulwolscine (NET-722) (New England Nuclear, USA) (1 nM final concentration) with or without competitor for 60 min at 25° C. followed by rapid filtration over GF/B filter using a Filtermate 196 harvester (Packard, Meriden, Conn.). Filters were rinsed extensively with ice-cold rinsing buffer (Tris-HCl 50 mM pH 7.4). Filter-bound radioactivity was determined by scintillation counting in a Topcount (Packard, Meriden, Conn.) and results were expressed as counts per minute (cpm). Non-specific binding was determined in the presence of 1 μM oxymetazoline for hα2A- and hα2B-receptors and 1 μM spiroxatrine for hα2C receptors.
(§4) Data from assays in the presence of compound were calculated as a percentage of total binding measured in the absence of test compound. Inhibition curves, plotting percent of total binding versus the log value of the concentration of the test compound, were automatically generated, and sigmoidal inhibition curves were fitted using non-linear regression. The pIC50 values of test compounds were derived from individual curves. All compounds according to Formula (I) produced an inhibition at least at the hα2A site (but often also at the hα2B and hα2C sites) and simultaneously at the 5-HT transporter site of more than 50% (PIC50) at a test concentration ranging between 10^−6 M and 10^−9 M in a concentration-dependent manner.

The target of another assay is T2, hα2B receptor (Homo sapiens, UniProt P18089).
T2 construct: expressed in transfected cells
T2 sequence (P18089 1-450): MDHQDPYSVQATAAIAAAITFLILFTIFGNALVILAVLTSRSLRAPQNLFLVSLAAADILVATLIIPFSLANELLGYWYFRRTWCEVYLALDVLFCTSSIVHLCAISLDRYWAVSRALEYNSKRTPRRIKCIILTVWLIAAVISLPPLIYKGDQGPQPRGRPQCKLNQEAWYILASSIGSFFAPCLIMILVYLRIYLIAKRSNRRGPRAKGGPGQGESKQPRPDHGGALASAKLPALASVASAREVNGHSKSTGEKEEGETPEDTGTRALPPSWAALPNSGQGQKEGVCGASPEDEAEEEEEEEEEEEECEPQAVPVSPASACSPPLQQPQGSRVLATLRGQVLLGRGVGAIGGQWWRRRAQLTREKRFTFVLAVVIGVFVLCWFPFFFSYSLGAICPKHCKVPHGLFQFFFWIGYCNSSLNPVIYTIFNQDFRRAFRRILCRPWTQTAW
In words: Radioligand binding experiment for α2B-adrenergic receptor ([3H]-raulwolscine). Conditions: membranes of CHO cells transfected with human α2B receptor; [3H]raulwolscine 1 nM. As for the experimental part: as §1, §2, §3, §4

The next assay has as its target T3, hα2C receptor (Homo sapiens, UniProt P18825).
T3 construct: expressed in transfected cells
T3 sequence (P18825 1-462): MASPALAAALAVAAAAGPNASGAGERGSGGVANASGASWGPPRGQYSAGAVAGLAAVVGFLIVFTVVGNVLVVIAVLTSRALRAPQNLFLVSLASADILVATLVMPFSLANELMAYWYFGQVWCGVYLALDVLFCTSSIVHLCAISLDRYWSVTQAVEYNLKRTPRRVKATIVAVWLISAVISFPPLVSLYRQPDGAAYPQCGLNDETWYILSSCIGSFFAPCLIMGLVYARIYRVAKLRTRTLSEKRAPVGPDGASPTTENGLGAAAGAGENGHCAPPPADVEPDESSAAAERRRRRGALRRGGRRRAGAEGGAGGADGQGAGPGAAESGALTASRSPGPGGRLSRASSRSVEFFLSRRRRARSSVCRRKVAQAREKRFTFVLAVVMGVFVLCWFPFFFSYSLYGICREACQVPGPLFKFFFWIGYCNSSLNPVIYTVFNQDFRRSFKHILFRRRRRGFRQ
Nature of the assay: Radioligand binding experiment for α2C-adrenergic receptor ([3H]-raulwolscine). The following applies: membranes of CHO cells transfected with human α2C receptor; [3H]raulwolscine 1 nM. As to the method: as §1, §2, §3, §4

The next assay deals with T4, h5-HT transporter (Homo sapiens, UniProt P31645).
T4 construct: Human platelet membranes (Oceanix Biosciences Corporation, Hanover, Md., USA) were thawed; tissue Oceanix Biosciences Corporation; host or cells: human platelet membranes
T4 sequence (P31645 whole entry): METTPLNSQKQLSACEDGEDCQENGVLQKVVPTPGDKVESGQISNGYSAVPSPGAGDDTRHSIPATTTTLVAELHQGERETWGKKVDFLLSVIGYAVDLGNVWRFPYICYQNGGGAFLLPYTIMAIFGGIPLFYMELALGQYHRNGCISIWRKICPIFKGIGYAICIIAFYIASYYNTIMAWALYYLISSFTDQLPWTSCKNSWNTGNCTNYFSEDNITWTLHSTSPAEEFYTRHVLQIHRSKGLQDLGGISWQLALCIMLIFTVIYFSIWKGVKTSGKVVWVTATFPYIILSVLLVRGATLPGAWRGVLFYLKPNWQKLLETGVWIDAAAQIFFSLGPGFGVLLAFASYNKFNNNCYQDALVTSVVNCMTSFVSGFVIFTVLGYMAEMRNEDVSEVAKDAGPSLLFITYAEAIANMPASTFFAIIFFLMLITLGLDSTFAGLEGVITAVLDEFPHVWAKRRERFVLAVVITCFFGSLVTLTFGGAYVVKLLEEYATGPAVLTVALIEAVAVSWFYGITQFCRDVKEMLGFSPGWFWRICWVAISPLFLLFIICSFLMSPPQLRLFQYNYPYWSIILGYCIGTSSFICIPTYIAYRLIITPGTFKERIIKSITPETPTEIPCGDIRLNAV
Nature of the assay: Radioligand binding experiment for 5-HT transporter ([3H]paroxetine). The following applies: human platelet membranes; [3H]paroxetine 0.5 nM; read-out: 5-HTT (converted). As for the experimental part: as §1
Human platelet membranes (Oceanix Biosciences Corporation, Hanover, Md., USA) were thawed, diluted in buffer (Tris-HCl 50 mM, 120 mM NaCl and 5 mM KCl) and quickly (max 3 s) homogenised with an Ultraturrax homogenizer. In a total volume of 250 μL, 50-100 μg protein was incubated with [^3H]paroxetine (NET-869) (New England Nuclear, USA) (0.5 nM final concentration) with or without competitor for 60 min at 25° C. Incubation was stopped by rapid filtration of the incubation mixture over GF/B filters, pre-wetted with 0.1% polyethyleneamine, using a Filtermate 196 harvester (Packard, Meriden, Conn.). Filters were rinsed extensively with ice-cold buffer and radioactivity on the filters was counted in a Topcount liquid scintillation counter (Packard, Meriden, Conn.). Data were expressed as cpm. Imipramine (at 1 μM final concentration) was used to determine the non-specific binding.
as §4

Structures are written as SMILES.

Take `COc1cc2c(c(C#N)c1OC)OCC1C2=NOC1CN1CCN(CC(C)=Cc2ccc(F)cc2)CC1` (stereo not shown) [Compound 19]: the IC50 on hα2A receptor was 10 nM; on hα2B receptor, 20 nM; at hα2C receptor, 15.8 nM; at h5-HT transporter, 126 nM.
As to `CC(=Cc1ccccc1)CN1CCN(CC2ON=C3c4cccc(OCCO)c4OCC32)CC1` (stereo not shown) [Compound 11], the IC50 at hα2A receptor is 3.16 nM; at hα2B receptor, 2.51 nM; at hα2C receptor it was 3.16 nM; at h5-HT transporter, 50.1 nM.
For `CCOC(=O)c1c(OC)c(OC)cc2c1OC[C@@H]1C2=NO[C@H]1CN1CCN(C/C(C)=C/c2ccccc2)CC1` (single isomer, unassigned) [Compound 4, 7,8-dimethoxy-3-[4-(2-methyl-3-phenyl-allyl)-piperazin-1-ylmethyl]-3a,4-dihydro-3H-chromeno[4,3-c]isoxazole-6-carboxylic acid ethyl ester], the IC50 at hα2A receptor is 6.31 nM; at hα2B receptor it was 3.98 nM; on hα2C receptor, 1.26 nM; at h5-HT transporter it was 63.1 nM.
For `COC(=O)c1c(OC)c(OC)cc2c1OCC1C2=NOC1CN1CCN(C/C(C)=C/c2ccccc2)CC1` (single isomer, unassigned) [Compound 5], in that order: 2 nM, 5.01 nM, 1.26 nM and 158 nM.
The like results for `CCNC(=O)Nc1cccc2c1OCC1C2=NOC1CN1CCN(CC(C)=Cc2ccccc2)CC1` (stereo not shown) [Compound 17] were, in that order, 63.1 nM, 6.31 nM, 15.8 nM and 10 nM.
For `CC(=O)Nc1cccc2c1OCC1C2=NOC1CN1CCN(CC(C)=Cc2ccccc2)CC1` (stereo not shown) [Compound 22], in that order: 31.6 nM, 2 nM, 3.98 nM and 25.1 nM.
With `COc1cccc2c1C1=NOC(CN3CCN(CC(C)=Cc4ccccc4)CC3)C1CO2` (stereo not shown) [Compound 8], the IC50 was 2 nM at hα2A receptor, 1 nM on hα2B receptor, 2.51 nM at hα2C receptor and 251 nM at h5-HT transporter.
For `COCC(=O)OCCOc1cccc2c1OCC1C2=NOC1CN1CCN(CC(C)=Cc2ccccc2)CC1` (stereo not shown) [Compound 12], in that order: 126 nM, 6.31 nM, 3.98 nM and 126 nM.
For `CC(=Cc1ccccc1)CN1CCN(CC2ON=C3c4cccc(NCCN5CCCC5)c4OCC32)CC1` (stereo not shown) [Compound 16], in that order: 39.8 nM, 3.98 nM, 7.94 nM and 25.1 nM.
For `CCNC(=O)OCCOc1cccc2c1OCC1C2=NOC1CN1CCN(CC(C)=Cc2ccccc2)CC1` (stereo not shown) [Compound 10], in that order: 79.4 nM, 5.01 nM, 6.31 nM and 39.8 nM.
On to `CC(=Cc1ccccc1)CN1CCN(CC2ON=C3c4c(O)cccc4OCC32)CC1` (stereo not shown) [Compound 9], for which the IC50 at hα2A receptor is 25.1 nM; on hα2B receptor it was 2 nM; at hα2C receptor it was 1.26 nM; at h5-HT transporter, 63.1 nM.
On to `COc1cc2c(c(C)c1OC)OC[C@@H]1C2=NO[C@H]1CN1CCN(C/C(C)=C/c2ccccc2)CC1` (single isomer, unassigned) [Compound 3, 7,8-dimethoxy-6-methyl-3-[4-(2-methyl-3-phenyl-allyl)-piperazin-1-ylmethyl]-3a,4-dihydro-3H-chromeno[4,3-c]isoxazole], for which the IC50 at hα2A receptor is 1.58 nM; on hα2C receptor, 0.398 nM; at h5-HT transporter it was 31.6 nM.
As for `COc1cc2c(c(I)c1OC)OCC1C2=NOC1CN1CCN(CC(C)=Cc2ccc(F)cc2)CC1` (stereo not shown) [Compound 18], the IC50 at hα2A receptor was 25.1 nM; at hα2B receptor it was 31.6 nM; on hα2C receptor it was 25.1 nM; on h5-HT transporter, 50.1 nM.
On to `COc1cc2c(c(Br)c1OC)OCC1C2=NOC1CN1CCN(C/C(C)=C/c2ccccc2)CC1` (stereo not shown) [Compound 1, 6-Bromo-7,8-dimethoxy-3-[4-(2-methyl-3-phenyl-allyl)-piperazin-1-ylmethyl]-3a,4-dihydro-3H-chromeno[4,3-c]isoxazole], for which the IC50 was 2 nM at hα2A receptor, 1 nM at hα2C receptor and 12.6 nM at h5-HT transporter.
Take `COCC(=O)OCCOc1cccc2c1OCC1C2=NOC1CN1CCN(CC(C)=Cc2ccccc2)CC1` (single isomer, unassigned) [Compound 24]: the IC50 on hα2A receptor was 100 nM; on hα2B receptor, 25.1 nM; on hα2C receptor it was 39.8 nM; at h5-HT transporter it was 31.6 nM.
